Several values for one entry are separate records, joined by “and”; a condition that tells them apart may be missing. Equal values may be shown once. Entries after “also recorded” stand apart in the source; their conditions may differ. Read-outs that look alike come from different tables or passages of the source.
How the values were obtained:
[1] = molecular target: T1, mouse β2-adrenergic receptor (Mus musculus, UniProt P18762); experiment: Ca2+ imaging of HEK-293 cells transfected with β2-R-GFP (control); assay type: cell-based; conditions: immediately after addition
T1 construct: was fused with a C-terminal EGFP tag by amplifying the full-length cDNA with the P117 mouse 2AR XhoI 5′ primer; expressed in transfected cells; host or cells: HEK-293, transient (pEGFP-N3)
Experimental: (§1) The intracellular free Ca^2+ concentration [Ca^2+]i was measured in COS-7 and HEK293 cells transiently transfected with the HC110-R-EGFP or β2-AR-EGFP construct using the calcium imaging method (see also FIG. 11). In each case 2×10^5 COS-7 and HEK293 cells were applied to a 42 mm cover glass coated with 1% gelatine in 55 mm tissue culture dishes with 5 ml of DMEM medium (with 10% FCS and pen/strep). The transfection took place with the aid of the non-liposomal transfection reagent FuGENE 6 (Roche Molecular Biochemicals, Mannheim). […] Constructs of the HC110-R full-length clone with a GFP tag fused in the correct reading frame, and the complete cDNA of the β2-adrenergic receptor which had likewise been provided with a GFP tag at the 3′ end, were transfected.
(§2) After the incubation, the cells loaded with Fura-2/AM were examined under an inverted microscope (Zeiss, Axiovert, Germany) and, in parallel with this, in a digital imaging fluorescence microscope (PTI) and differentiated into transfected and untransfected cells at a wavelength of 440 and 490 nm respectively. On average, 5-7 transfected and non transfected cells were selected by fixing an ROI (region of interest). The extinction was measured at 340 nm (calcium-bound Fura-2/AM) and 380 nm (free Fura-2/AM), and the emission was measured at 510 nm. Evaluation took place using the Image Master 1.x software by forming the quotient of 340:510 nm, 380:510 nm and the ratio of 340/380:510 nm (background corrected images) as a function of the agent added.
Agents were always added 6 min after starting the measurement by removing an appropriate volume of Na^+ HBS buffer and pipetting the agent directly into the sample vessel for a further 30 to 50 min. The total volume in the sample vessel was constant at 1.5 ml throughout the experiment. […] Addition of CdCl2 and nifedipine took place immediately at the start of the experiment and before addition of α-LTX, and EGTA was added both at the start of the experiment and 4 min after the addition of α-LTX. […]
The data were analyzed using the Excel 98 table calculation programme. […]

[2] = Ca2+ imaging, arecoline stimulation of untransfected HEK-293 cells; assay type: cell-based, human; conditions: 1 mM arecoline; absence of BAY44-4400
HC110-R [3] = assay type: cell-based, Haemonchus contortus; conditions: for α-LTX-induced increase in [Ca2+]i after preincubation: substance removed, then 75 nM α-LTX
Experimental: as §1, §2
Agents were always added 6 min after starting the measurement by removing an appropriate volume of Na^+ HBS buffer and pipetting the agent directly into the sample vessel for a further 30 to 50 min. The total volume in the sample vessel was constant at 1.5 ml throughout the experiment. […] Addition of CdCl2 and nifedipine took place immediately at the start of the experiment and before addition of α-LTX, and EGTA was added both at the start of the experiment and 4 min after the addition of α-LTX. Dissolved α-LTX was present in a concentration of 300 nM in 50 mM tris-HCl, pH 8.0; BAY 44-4400 was initially dissolved in pure DMSO (stock solutions between 0.004 and 10 μg/ml). The stock solutions were adjusted to the required concentration in the Na^+ HBS buffer. The maximum amount of the active substance BAY 44-4400 which could be dissolved at a final concentration of 0.1% DMSO was found by setting up serial dilutions in Na^+ HBS.
The data were analyzed using the Excel 98 table calculation programme. The results are derived from at least 2-4 reproduced experiments on in each case 4-8 transfected and un-transfected cells.

[4] = test system: endogenous, natural muscarinic acetylcholine receptors; experiment: Ca2+ imaging, carbachol stimulation of untransfected HEK-293 cells; assay type: cell-based, human; conditions: 1 mM carbachol; absence of BAY44-4400
nematodes = experiment: Anthelmintic / neuropharmacological activity on nematodes
HC110-R [5] = experiment: Ca2+ imaging of HEK-293 cells expressing HC110-R-Myc/His; assay type: cell-based, Haemonchus contortus; conditions: stably expressing cells; 400 ng/ml added 6 min before 75 nM α-LTX

T1 sequence (P18762 whole entry, the tested form may be a part): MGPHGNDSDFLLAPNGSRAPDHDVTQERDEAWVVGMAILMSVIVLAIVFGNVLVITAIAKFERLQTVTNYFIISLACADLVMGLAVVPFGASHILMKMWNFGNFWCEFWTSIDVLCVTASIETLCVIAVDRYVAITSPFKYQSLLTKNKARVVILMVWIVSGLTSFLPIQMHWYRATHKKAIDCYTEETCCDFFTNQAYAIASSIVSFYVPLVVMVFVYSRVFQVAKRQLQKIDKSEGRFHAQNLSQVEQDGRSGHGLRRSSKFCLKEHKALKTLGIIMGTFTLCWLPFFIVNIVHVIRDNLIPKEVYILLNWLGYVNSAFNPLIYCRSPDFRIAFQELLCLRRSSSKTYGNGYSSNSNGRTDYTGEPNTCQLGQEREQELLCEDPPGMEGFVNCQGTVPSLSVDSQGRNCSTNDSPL

SMILES: CC(C)NCC(O)c1ccc(O)c(O)c1 (stereo not shown) [isoproterenol]
- Ca2+ response to isoproterenol [1]: significant Ca^2+ response

SMILES: COC(=O)C1=CCCN(C)C1 [arecoline]
- arecoline-induced increase in Ca2+ [2]: 27 ± 3.5 nM

SMILES: O=C(O)CN(CCOCCOCCN(CC(=O)O)CC(=O)O)CC(=O)O [EGTA]
- α-LTX-induced increase in [Ca2+]i with extracellular Ca2+ removed (HC110-R [3]; 2 mM EGTA before or after addition of α-LTX): only a small increase

SMILES: C[N+](C)(C)CCOC(N)=O.[Cl-] [carbachol, carbamylcholine chloride]
- carbachol-induced increase in [Ca2+]i [4]: 53+6.8 nM

SMILES: C1CNCCN1 [piperazine]
- effect of piperazine on activity of PF1022A/BAY44-4400 (Heterakis spumosa): synergistically enhances the effect of PF1022A/BAY44-4400
- change in Ca2+ balance, piperazine alone (HC110-R [3]; 10 μM piperazine, untransfected and HC110-R-GFP-transfected cells): no change in the Ca^2+ balance

SMILES: COC(=O)C1=C(C)NC(C)=C(C(=O)OC)C1c1ccccc1[N+](=O)[O-] [nifedipine]
- second α-LTX-induced increase in [Ca2+]i (HC110-R [3]; 15 μM nifedipine): 30 ± 5.4 nM

SMILES: CC(C)C[C@@H]1C(=O)O[C@@H](Cc2ccccc2)C(=O)N(C)[C@H](CC(C)C)C(=O)O[C@@H](C)C(=O)N(C)[C@H](CC(C)C)C(=O)O[C@@H](Cc2ccccc2)C(=O)N(C)[C@H](CC(C)C)C(=O)O[C@@H](C)C(=O)N1C [PF1022-001, cyclo(-L-Lac-D-MeLeu-L-PhLac-D-Me-Leu-)2]
- anthelmintic / nematicidal activity in words (nematodes): has no anthelmintic activity; also recorded: virtually ineffective
- α-LTX-induced increase in [Ca2+]i in presence of substance (HC110-R [5]): 209 ± 33.4 nM
- α-LTX-induced increase in [Ca2+]i in presence of substance (HC110-R [3]; 4 ng/ml added 6 min before 75 nM α-LTX): 103 ± 11.5 nM
- α-LTX-induced increase in [Ca2+]i in presence of substance (HC110-R [3]; 4 ng/ml added 6 min before 75 nM α-LTX, listed as optical antipode): 67 nM
- change in [Ca2+]i after preincubation with substance alone (HC110-R [3]; 4 ng/ml or 400 ng/ml, 90 min preincubation, no α-LTX): no change in [Ca^2+]i
- α-LTX-induced increase in [Ca2+]i after preincubation (HC110-R [3]; 4 ng/ml, 90 min preincubation): 102 ± 6.4 nM
- α-LTX-induced increase in [Ca2+]i in presence of substance (HC110-R [3]; 400 ng/ml added 6 min before 75 nM α-LTX): 112+14.3 nM
- Ca2+ response to substance alone (HC110-R [3]; 400 ng/ml where stated, no α-LTX, up to 50 min or 90 min preincubation): neither the very effective nematicide BAY44-4400 nor the virtually ineffective antipode PF1022-001 induces a Ca^2+ response
- α-LTX-induced increase in [Ca2+]i after preincubation (HC110-R [3]; 400 ng/ml, 90 min preincubation): 109 ± 8.4 nM and 110 nM
- reduction of α-LTX-induced Ca2+ increase (HC110-R [3]; 400 ng/ml, 90 minutes preincubation, 6 minutes after 75 nM α-LTX): 59%
- Ca2+-mediated response to substance alone (HC110-R [3]; 100, 300 or 400 ng/ml and 1 or 10 μg/ml, 50 min, untransfected and HC110-R-GFP-transfected cells): At no concentration was a Ca^2+-mediated response detectable
- α-LTX-induced increase in Ca2+ at increased concentration of substance (HC110-R [3]; concentration above 4 ng/ml, added 6 minutes before 75 nM α-LTX): 20 nM

— patent US20050037436A1, “Test systems and the use thereof for identifying and characterizing compounds” (priority 2000, published 2005)
